# Laboratory results taken from US20220062262A1, “GSNO REDUCTASE INHIBITOR AS AN ADJUNCT THERAPY WITH REMOTE ISCHEMIC CONDITIONING AND THROMBOLYTIC REPERFUSION THERAPIES IN STROKE” (KING ABDULAZIZ UNIVERSITY, priority 2020, published 2022).
# What was measured:
# [1] = test system: iNOS, iCAM-1, IL-1β, IL-6 expression; assay: Brain inflammatory gene expression (RT-PCR) after tMCAo in STZ-induced diabetic mice; type: in vivo
# Protocol: Mice were immediately sacrificed after PbtO2 measurement and brain tissue samples were analyzed for inflammatory gene expression (N=6/gp). RT-PCR primers shown in Table 1 were used to measure changes in expression of iNOS (FIG. 11A), iCAM-1 (FIG. 11B), IL-1(3 (FIG. 11C) and IL-6 (FIG. 11D). The result for each inflammatory gene was normalized to expression of β-actin and expressed as a fold change.
# [2] = test system: tMCAo stroke in STZ-induced diabetic mice; assay: Reperfused tMCAo stroke model in STZ-induced diabetic male mice, with or without RIC therapy; type: in vivo; details: for brain tissue oxygenation (PbtO2): 6 h post-reperfusion; for % infarct volume / % swelling / mean NDS: 24 h post-stroke
# Description: The tMCAo surgical procedure is similar to TE-stroke surgery, however, the transient occlusion is achieved using a suture instead of a clot as reported by Hoda et al (supra). Briefly, a 6-0 monofilament suture with ˜3-mm silicone-coated tip designed to induce tMCAo in mice (Doccol Corp, USA) was introduced into the ICA via an ECA stump, directed and gently advanced into the MCA region until the suture was wedged to occlude the proximal stem of MCA. The occlusion was maintained prior to withdrawing the filament after […], the ECA- arteriotomy was ligated and the reperfusion was allowed following suture withdrawal. The sham-operated group underwent similar procedures without occlusion, and mice recovered as above.
# TTC is a white powder and the solution remains colorless, which is reduced to red 1,3,5-triphenylformazan (TPF) by the enzymatic action of various dehydrogenases primarily mitochondrial dehydrogenase from the living tissues, while the core remains as white. Therefore, larger white area indicates higher injury and infarction volume. After performing ATT, mice were overdosed and deeply anesthetized with high isofluorane (5%). Brains were very quickly perfused with cold 25 ml of 0.01 M phosphate-buffered saline (PBS), harvested fresh and immediately placed in a metallic mouse brain matrix. Looking at the infarcted area, 5 blades were placed in alternate gaps to cut and obtain […] coronal slices. Sections were individually placed in a 35-mm dish containing pre-warmed (37° C.) 3-ml of 5% TTC in PBS (Sigma) for 20-25 minutes at 37° C., followed by 2× washing with cold PBS and fixation with 10% formalin. In order to image, fixed sections were taken out of the dish and placed in order on a high-resolution Cannon Scanner. After scanning, images were cropped and saved for analysis. Corrected infarct volume was estimated using gray scale image and Scion Image software and presented as the Corrected % infarct volume normalized to the uninjured side.
# Diabetes was induced in adult male mice (14±1 weeks of age) as confirmed after 7 days of STZ-injection, followed by tMCAo stroke surgery at 3 weeks post-STZ injection. Stroke was induced with 60-min suture occlusion followed by reperfusion with suture withdrawal. GRI therapy or vehicle was IV-infused 10-min prior to reperfusion and RIC therapy/ RIC-mock was performed 1 h after reperfusion. […] PbtO2 was measured at 6h post-reperfusion (N=6/gp) using a 50-um thick oxygen sensor integrated to an UniAmp multi-channel system (Unisense, Denmark). Measurement signal was averaged for 3 min during a period of stable output as shown in the representative real-time electrogram traces in FIGS. 9A-9D. FIG. 9A is representative of a mouse treated with vehicle and receiving mock RIC. FIG. 9B is representative of a mouse receiving vehicle and RIC therapy. FIG. 9C is representative of a mouse receiving GRI therapy and mock RIC. FIG. 9D is representative of a mouse receiving GRI therapy and RIC therapy.
# Diabetic adult male mice (as described in Example 4) were subjected to tMCAo (N=10/gp) with or without GRI and/or RIC-therapies and outcome measures were performed at 24h post-stroke.
# [3] = test system: ischemia/reperfusion; details: 5 mg/kg at 2 hr post ischemia/reperfusion, daily for 3 days or 2 weeks; cited from earlier work
# [4] = low-dose GRI combined with RIC therapy, vs all other 3 groups
compound,measurement,setting,value
"Cc1cc(C(N)=O)ccc1-n1c(CCC(=O)O)ccc1-c1ccc(-n2ccnc2)cc1 [GRI therapy, N6022]","inflammatory gene expression in brain (fold change, normalized to β-actin)","[1]; GRI alone vs vehicle-treated stroke group, after PbtO2 measurement at 6 h post-reperfusion",showed a trend only to downregulate most inflammatory genes and were not significantly different from the vehicle-treated stroke group
same,"inflammatory gene expression in brain (fold change, normalized to β-actin)",[1]; GRI prior to RIC therapy vs RIC therapy alone,significantly downregulated and prevented RIC-induced inflammatory responses
same,brain tissue oxygenation (PbtO2),[2]; GRI IV 10 min prior to reperfusion followed by RIC therapy 1 h after reperfusion,"showed enhanced efficacy of both, GRI and RIC-therapies, in improving benefits of reperfusion to increase PbtO2"
same,brain tissue oxygenation (PbtO2),"[2]; GRI alone (RIC-mock), IV 10 min prior to reperfusion, vs vehicle RIC-mock",improved PbtO2 significantly
same,% infarct volume,"[2]; GRI singly (RIC-mock), N=10/gp",did not improve
same,% swelling,"[2]; GRI singly (RIC-mock), N=10/gp",did not improve
same,mean NDS,"[2]; GRI singly (RIC-mock), N=10/gp",did not improve
same,% infarct volume,[2]; [4],significantly improved
same,% swelling,[2]; [4],significantly improved
same,mean NDS,[2]; [4],significantly improved
same,"Neurological score, survival rate and motor/cognitive skills",[3],improved
